{"source": "patent US8101740B2", "about": "“Positron emission tomography probes for imaging immune activation and selected cancers” (The Regents of the University of California, priority 2007, dated 2012)", "key": {"[1]": {"tested_on": "human U87 cells", "experiment": "microPET/CT of implanted U87 glioma", "assay_type": "in vivo, SCID mice", "settings": "imaged 10 days after 1×10^6 cells subcutaneously", "description": "(§1) In addition to immune diseases, [^18F]D-FAC may also be used to measure dysregulated nucleoside metabolism in cancer. To this end, we examined the utility of [^18F]D-FAC microPET in animal models representative of leukemia or lymphoma, melanoma, and glioma tumors (FIG. 12, where the images are 1 mm coronal sections from [^18F]D-FAC microPET/CT scans 1 hr after probe injection). In FIG. 12A, SCID mice were injected intravenously with Ba/F3 cells expressing p210 BCR-ABL and go on to develop aggressive disease with massive splenic infiltration that typically results in death within ˜15 days (mice shown were imaged on day 12). In FIG. 12B, the NOD SCID mice were transplanted with wild type total bone marrow cells infected with MSCV-GFP-IRES-P185 BCR-ABL retroviral stocks and the leukemic mice were imaged 28 days following transplantation. In FIG. 12C, C57BL/6 was injected subcutaneously with 1×10^5 B16 melanoma cells and imaged 7 days later. In FIG. 12D, SCID mice were injected subcutaneously with 1×10^6 U87 glioma cells and imaged 10 days later. […] [^18F]D-FAC PET also detected implanted murine B16 cells (representative of malignant melanoma) and human U87 cells (representative of glioma tumors). […]"}, "[2]": {"tested_on": "Bcr-Abl-expressing Ba/F3 cells and Bcr-Abl transformed bone marrow", "experiment": "microPET/CT of Bcr-Abl oncogene-induced leukemia models", "assay_type": "in vivo, mouse", "settings": "1 hr after probe injection", "description": "as §1, with “later.” for “later. In FIG. 12D, SCID mice were injected subcutaneously with 1×10^6 U87 glioma cells and imaged 10 days later.”\nSix to 8 week old mice with severe combined immunodeficiency (NOD SCID) were sublethally irradiated (275 rads) one day prior to reconstitution. […] Animals were monitored daily for signs of illness during a period of two months as previously described^10. […]"}, "[3]": {"tested_on": "lymphoma lesion", "experiment": "PET scan of human subject with lymphoma lesion", "assay_type": "in vivo", "settings": "coronal PET image", "from_the_text": "FIG. 29 presents PET scan images of a human subject after injection of [^18F]D-FAC. […] The heterogeneous spleen 292 is visible."}, "[4]": {"tested_on": "splenic CD8+T cells", "experiment": "radioactivity in sorted splenic CD8+T cells from mice injected with probe", "assay_type": "in vivo", "settings": "CD62LLOW/CD44HIGH vs CD62LHIGH/CD44LOW", "text": "To further investigate the cellular basis of elevated [^18F]D-FAC retention, splenic CD8+T cells from mice injected with [^18F]FAC were fractionated by flow cytometry into naïve (CD62LHIGH/CD44LOW) and effector populations (CD62LLOW/CD44HIGH)."}, "[5]": {"tested_on": "murine B16 cells", "experiment": "microPET/CT of implanted B16 melanoma", "assay_type": "in vivo, C57BL/6 mice", "settings": "imaged 7 days after 1×10^5 cells subcutaneously", "description": "as §1"}, "[6]": {"tested_on": "MoMSV-induced sarcomas", "experiment": "microPET/CT in oncoretrovirus (MoMSV) sarcoma model of anti-tumor immunity", "description": "All the mice used in these studies were bred and maintained according to the guidelines of the Department of Laboratory Animal Medicine (DLAM) at the University of California, Los Angeles. For the oncoretrovirus-induced sarcoma model, C57/BL6 mice were challenged intramuscularly in the right triceps with the Moloney murine sarcoma and leukemia virus complex (MoMSV) in a volume of 100 uL of PBS as described previously^6. B6-MRL-Fas^1pr/J mice used for systemic autoimmunity studies were purchased from the Jackson Laboratory (stock number 000482). To monitor the immunosuppressive treatment, these mice were given intraperitoneal injections of dexamethasone (DEX, 10 mg/kg) at 24 hr intervals and were scanned by microPET/CT 24 hr after the last injection. Animals were anesthetized with 2% isoflurane, injected intravenously with 200 microCi [^18F]D-FAC and then scanned with microPET/CT; mice were sacrificed immediately after imaging. Organs were rapidly excised, weighed, and the radioactivity was measured in a well counter. After decay correction, results were expressed as percent of the injected dose of activity per gram of tissue (% ID/g). Other mice were anesthetized with 2% isoflurane and injected intravenously with 1 mCi [^18F]D-FAC. After 1 hr, mice were euthanized, embedded in 3% carboxymethyl cellulose (CMC, Sigma), and frozen in 100% ethanol with dry ice for 45 min. The 50 micron sections were cut using a whole body cryostat, (PMV, Stockholm, Sweden); samples were exposed overnight on BAS-TR2025 plates (Fujifilm Life Science, Stamford, Conn.). Imaging plates were read using a Fujibas-5000 phosphorimager (16 bit, 25 micron resolution; Fujifilm Life Science).\nIn this model, antigen-specific T cells primed by immunodominant epitopes encoded by viral gag and env genes rapidly expand in spleen and tumor draining lymph nodes (DLNs) and then traffic to the tumor lesion which is rejected over a period of 2-5 weeks^17,18. In fact, the kinetics of T cell responses against MoMSV-induced sarcomas have been studied extensively using conventional ex vivo approaches and our group has used PET reporter gene imaging to visualize tumor rejection in this model^17. To analyze whether the [^18F]D-FAC microPET/CT imaging can detect sites of localized immune activation, mice were scanned before and after the virus challenge.\nTo determine whether [^18F]D-FAC can provide unique information regarding localized immune activation via the afore-mentioned model, the mice imaged by [^18F]D-FAC were also scanned on consecutive days using [^18F]FDG and [^18F]FLT."}}, "data": [{"compound": "Nc1ccn([C@@H]2O[C@H](CO)[C@@H](O)[C@@H]2[18F])c(=O)n1", "note": "[[^18F]D-FAC, 1-(2′-deoxy-2′-[^18F]fluoro-β-D-arabinofuranosyl)cytosine]", "values": [{"measurement": "detection of implanted tumor cells by PET", "setting": "[1]", "value": "detected"}, {"measurement": "retention in the spleen", "setting": "[2]", "value": "increased"}, {"measurement": "concentration in lymph node", "setting": "[3]", "value": "high concentration"}, {"measurement": "retention in effector CD8+T cells versus naïve cytotoxic T cells", "setting": "[4]", "value": "~4", "unit": "fold"}, {"measurement": "detection of implanted tumor cells by PET", "setting": "[5]", "value": "detected"}, {"measurement": "accumulation in the spleen and tumor DLNs relative to baseline scans", "setting": "[6]; day 15, peak of anti-tumor immune response", "value": "significantly increased"}, {"measurement": "accumulation in the tumor", "setting": "[6]; tumor", "value": "6.7±0.3", "unit": "% ID/g"}, {"measurement": "accumulation in the tumor DLNs", "setting": "[6]; tumor draining lymph nodes", "value": "13±2.7", "unit": "% ID/g"}, {"measurement": "accumulation in tumor over background (contralateral muscle tissue)", "setting": "[6]; tumor lesions", "value": "1.9±0.3 % ID/g tumor over background"}, {"measurement": "route of clearance", "setting": "dynamic microPET/CT time-activity curves", "value": "predominantly cleared through the kidney"}, {"measurement": "retention in the brain and the myocardium", "setting": "mouse, in vivo", "value": "low retention"}, {"measurement": "organs with accumulated radioactivity", "setting": "one hour after intravenous injection", "value": "thymus, spleen, intestine, bone/bone marrow and, to a lesser extent, in the liver"}, {"measurement": "Spleen, % ID/g per organ normalized to % ID/g muscle", "setting": "spleen, 60 min after intravenous injection, 3 mice", "value": "2.16 +/− 0.48 % ID/g per organ normalized to % ID/g muscle"}, {"measurement": "Thymus, % ID/g per organ normalized to % ID/g muscle", "setting": "thymus, 60 min after intravenous injection, 3 mice", "value": "3.29 +/− 0.48 % ID/g per organ normalized to % ID/g muscle"}]}]}
